Data from patent US9120795B2, “Crystalline form of a β-lactamase inhibitor” (Cubist Pharmaceuticals, Inc., priority 2013, dated 2015).

Legend:
[1] = system: Kpn.2490 (KPC-3, SHV+, TEM+, clinical); experiment: Standard BLI potentiation MIC assay; type: cell-based; details: Klebsiella pneumoniae, read-out: MIC of β-lactam with BLI
Description: (§1) The experimental protocol was performed according to Clinical and Laboratory Standards Institute (CLSI) guidelines with modifications as described below (CLSI guidelines can be derived from the CLSI document M07-A9 published in January 2012: “Methods for Dilution Antimicrobial Susceptibility Tests for Bacteria That Grow Aerobically; Approved Standard-Ninth Edition”).
(§2) To prepare for MIC testing, frozen glycerol stocks of clinical isolates (Klebsiella pneumoniae, Eschericia coli, Enterobacter spp, Citrobacter spp, or Pseudomonas aeruginosa) were used to streak for isolated colonies on rich, non-selective, tryptic soy agar containing 5% sheep's blood (TSAB). Frozen glycerol stocks of laboratory engineered, isogenic E. coli strains, which contain cloned β-lactamase expressing plasmids were used to streak for isolated colonies on rich, selective LB agar supplemented with 25 μg/mL tetracycline to maintain the plasmid. All strains were incubated at 37° C. for 18-24 hrs.
(§3) On the day of testing, primary cultures were started by scraping off 5-10 colonies from the TSAB plates containing clinical strains or the tetracycline supplemented LB plates containing engineered strains. The clinical strain material was suspended in ˜5 mL of cation adjusted Mueller Hinton Broth (CAMHB) in 14 mL culture tubes. The engineered strain material was suspended in CAMHB (supplemented with 25 μg/mL tetracycline) in 14 mL culture tubes. All strains were incubated at 37° C. with aeration (200 rpm) for ˜2 hrs until the optical density at 600 nm (OD600) was ≧0.1.
(§4) The two compound components of the assay were each diluted in CAMHB and added to the 96-well broth microdilution assay plates. 50 μL of the β-lactam was added to each well of the assay plate in 2-fold dilutions with final concentrations ranging from 128 to 0.13 μg/mL. 25 μL of the BLI compound was added to all wells in the broth microdilution plates at a final concentration of 4 μg/mL. Inoculum cultures were prepared by standardizing the primary cultures to OD600=0.1 and then adding 20 μL of the adjusted primary culture per 1 mL CAMHB for clinical strains or CAMHB (supplemented with tetracycline at 100 μg/mL) for engineered strains, so that the final inoculum density was ˜10^5 colony forming units per milliliter. Diluted inoculum cultures were used to inoculate 25 μL per well in 96-well broth microdilution assay plates. The final volume of each well was 100 μL and contained a β-lactam at different concentrations, a BLlcompound at 4 μg/mL concentration, the bacterial culture at an OD600 of approximately 0.001 and when necessary tetracycline at 25 μg/mL.
(§5) Plates were incubated for 18-20 hours at 37° C. with aeration (200 rpm). Following incubation, growth was confirmed visually placing plates over a viewing apparatus (stand with a mirror underneath) and then OD600 was measured using a SpectraMax 340PC384 plate reader (Molecular Devices, Sunnyvale, Calif.). Growth was defined as turbidity that could be detected with the naked eye or achieving minimum OD600 of 0.1. MIC values were defined as the lowest concentration producing no visible turbidity.

[2] = system: Kpn.2909 (KPC-3, SHV+, TEM+, clinical); experiment: Standard BLI potentiation MIC assay; type: cell-based; details: Klebsiella pneumoniae, read-out: MIC of β-lactam with BLI
Description: as §1, §2, §3, §4, §5

[3] = system: Kpn.2914 (KPC-2, SHV+, clinical); experiment: Standard BLI potentiation MIC assay; type: cell-based; details: Klebsiella pneumoniae, read-out: MIC of β-lactam with BLI
Description: as §1, §2, §3, §4, §5

[4] = system: Kpn.2917 (KPC-2, SHV+, clinical); experiment: Standard BLI potentiation MIC assay; type: cell-based; details: Klebsiella pneumoniae, read-out: MIC of β-lactam with BLI
Description: as §1, §2, §3, §4, §5

[5] = system: Kpn.571 (TEM-26, clinical); experiment: Standard BLI potentiation MIC assay; type: cell-based; details: Klebsiella pneumoniae, read-out: MIC of β-lactam with BLI
Description: as §1, §2, §3, §4, §5

[6] = system: Pae.2863 (AmpC de-repress, clinical); experiment: Standard BLI potentiation MIC assay; type: cell-based; details: Pseudomonas aeruginosa, read-out: MIC of β-lactam with BLI
Description: as §1, §2, §3, §4, §5

[7] = system: Pae.2885 (AmpC, clinical); experiment: Standard BLI potentiation MIC assay; type: cell-based; details: Pseudomonas aeruginosa, read-out: MIC of β-lactam with BLI
Description: as §1, §2, §3, §4, §5

[8] = system: Cfr.568 (AmpC, clinical); experiment: Standard BLI potentiation MIC assay; type: cell-based, Citrobacter spp; details: Citrobacter, read-out: MIC of β-lactam with BLI
Description: as §1
as §2, with “hrs. […]” for “hrs.”
as §5, with “MIC values were defined as the lowest concentration producing no visible turbidity.” left out

[9] = system: Panel of Isogenic and Clinical Strains Expressing β-Lactamases; experiment: Standard BLI potentiation MIC assay, whole panel; type: cell-based
Description: as §1
as §2, with “hrs. […]” for “hrs.”
as §5, with “MIC values were defined as the lowest concentration producing no visible turbidity.” left out

[10] = system: Eco isogenic, β-Lactamase none; experiment: Synergy MIC (sMIC) assay; type: cell-based, E. coli; details: β-Lactam none
Description: The synergy MIC (sMIC) assay determines the concentration of the BLI required to potentiate the activity of a fixed concentration of a β-lactam antibiotic against β-lactamase producing bacterial strains. The experimental protocol was performed according to Clinical and Laboratory Standards Institute (CLSI) guidelines with modifications as described below (CLSI guidelines can be derived from the CLSI document M07-A9 published in January 2012: “Methods for Dilution Antimicrobial Susceptibility Tests for Bacteria That Grow Aerobically; Approved Standard-Ninth Edition”). […]
as §5, with “sMIC” for “MIC”, “turbidity. […]” for “turbidity.”

Compound: O=C1N2C[C@@H](CC[C@H]2c2nnco2)N1OS(=O)(=O)[O-].[Na+] [Hydrate 1, sodium (2S,5R)-2-(1,3,4-oxadiazol-2-yl)-7-oxo-1,6-diazabicyclo[3.2.1]octan-6-yl sulfate]
- MIC [1]: 0.25 to 0.5 µg/mL
- MIC [2]: 1 to 2 µg/mL
- MIC [3]: 1 to 2 µg/mL
- MIC [4]: 0.25 to 0.5 µg/mL
- MIC [5]: 0.25 to 0.5 µg/mL
- MIC [6]: 1 to 2 µg/mL
- MIC [7]: 0.25 to 0.5 µg/mL
- MIC [8]: 1 to 2 µg/mL
- MIC50 [9]: 1 to 2 µg/mL
- MIC90 [9]: 1 to 2 µg/mL
- sMIC [10]: F (F = ≧128 μg/mL)
